Laboratory results reported in ChEMBL document CHEMBL5365457, “Selective HDAC3 Inhibitors with Potent In Vivo Antitumor Efficacy against Triple-Negative Breast Cancer” (J Med Chem, 2023).
Activity calls are given as the source filed them. The rule behind the calls is not given here.

Legend:
[1] = Cytotoxicity against Oxaliplatin-resistant human MDA-MB-231 cell assessed as reduction in cell viability incubated for 72 hrs in presence of oxaliplatin by MTT assay; assay type: functional, cell-based; details: Oxaliplatin-resistant MDA-MB-231 cell
[2] = Toxicity in BALB/c mouse implanted with mouse 4T1 cells assessed as heart damage at 5 to 15 mg/kg, ip measured after 21 days by H and E staining based assay; assay type: organism-based; details: in vivo, 504 h, dose 5-15 mg/kg, time 21 day
[3] = Toxicity in BALB/c mouse implanted with mouse 4T1 cells assessed as effect on cell shape in spleen at 5 to 15 mg/kg, ip measured after 21 days by H and E staining based assay; assay type: organism-based; details: in vivo, 504 h, dose 5-15 mg/kg, time 21 day
[4] = Selectivity ratio of IC50 for cytotoxicity against human MCF-10A cells assessed as inhibition of cell growth to IC50 for cytotoxicity against […] cells assessed as inhibition of cell growth; assay type: toxicity, cell-based; details: MCF-10A cells versus 4T1 cells, read-out: Ratio IC50
4T1 [5] = test: Induction of apoptosis in mouse 4T1 cells assessed as increase caspase 3/7 level at 1 uM by Western blot analysis; assay type: functional, cell-based
4T1 [6] = test: Induction of apoptosis in mouse 4T1 cells at 550 nM incubated for 72 hrs by annexin/PI staining based flow cytometry analysis (reference value: 1.35%); assay type: functional
[7] = Metabolic stability in rat liver microsome assessed as half life preincubated for 5 mins followed by NADPH addition and measured after 60 mins by HPLC analysis; assay type: ADME; details: liver microsomes, time 65 min
4T1 [8] = test: Antitumor activity against mouse 4T1 cells implanted in BALB/c mouse assessed as reduction in EGFR protein level in tumor at 5 to 15 mg/kg, ip by Western blot analysis; assay type: functional, organism-based; details: dose 5-15 mg/kg
[9] = Half life in Wistar rat at 15 mg/kg, ip measured upto 24 hrs by HPLC analysis; assay type: ADME, organism-based; details: in vivo
[10] = Selectivity ratio of IC50 for cytotoxicity against human HCEC cells assessed as inhibition of cell growth to IC50 for cytotoxicity against human MDA-MB-453 cells assessed as inhibition of cell growth; assay type: toxicity, cell-based; details: HCEC cells versus MDA-MB-453 cells, read-out: Ratio IC50
4T1 [11] = test: In-vivo inhibition of HDAC3 in BALB/c mouse implanted with mouse 4T1 cells assessed as increase in acetylation of tubulin level at 5 to 15 mg/kg, ip by Western blot analysis; assay type: functional, organism-based; details: dose 5-15 mg/kg
[12] = Cytotoxicity against human MCF-10A cells assessed as inhibition of cell growth incubated for 72 hrs by MTT assay; assay type: toxicity, cell-based
4T1 [13] = test: Induction of apoptosis in mouse 4T1 cells assessed as increase cytochrome c level by Western blot analysis; assay type: functional, cell-based; details: dose 1.0 µM
4T1 [14] = test: Antitumor activity against mouse 4T1 cells implanted in BALB/c mouse assessed as tumor growth inhibition at 5 mg/kg, ip measured on day 14; assay type: functional; details: 4T1, 336 h, time 14 day, read-out: TGI
[15] = Toxicity in BALB/c mouse implanted with mouse 4T1 cells assessed as spleen fibrosis at 5 to 15 mg/kg, ip measured after 21 days; assay type: organism-based; details: in vivo, 504 h, dose 5-15 mg/kg, time 21 day
4T1 [16] = test: Antitumor activity against mouse 4T1 cells implanted in BALB/c mouse assessed as reduction in tumor weight at 5 mg/kg, ip administered 5 times a week for 21 days; assay type: functional; details: time 21 day
[17] = Toxicity in BALB/c mouse implanted with mouse 4T1 cells assessed as effect on cell shape in heart at 5 to 15 mg/kg, ip measured after 21 days by H and E staining based assay; assay type: organism-based; details: in vivo, 504 h, dose 5-15 mg/kg, time 21 day
4T1 [18] = test: In-vivo inhibition of HDAC3 in ip dosed BALB/c mouse implanted with mouse 4T1 cells assessed as hyperacetylation of H3K9 level by Western blot analysis; assay type: functional, organism-based; details: dose 5-15 mg/kg
4T1 [19] = test: Cytotoxicity against mouse 4T1 cells assessed as inhibition of cell growth incubated for 72 hrs by MTT assay; assay type: functional, cell-based; details: 4T1, 72 h
[20] = Cytotoxicity against human HCEC cells assessed as inhibition of cell growth incubated for 72 hrs by MTT assay; assay type: toxicity, cell-based; details: human, HCEC cells
[21] = Selectivity ratio of IC50 for cytotoxicity against human HCEC cells assessed as inhibition of cell growth to IC50 for cytotoxicity against mouse 4T1 cells assessed as inhibition of cell growth; assay type: toxicity, cell-based; details: HCEC cells versus 4T1 cells, read-out: Ratio IC50
Histone deacetylase 3 = Histone deacetylase 3 (Homo sapiens, UniProt O15379); test: Inhibition of human recombinant HDAC3 incubated for 15 mins by fluorescence based microplate analysis
Sequence of Histone deacetylase 3 (O15379 whole entry): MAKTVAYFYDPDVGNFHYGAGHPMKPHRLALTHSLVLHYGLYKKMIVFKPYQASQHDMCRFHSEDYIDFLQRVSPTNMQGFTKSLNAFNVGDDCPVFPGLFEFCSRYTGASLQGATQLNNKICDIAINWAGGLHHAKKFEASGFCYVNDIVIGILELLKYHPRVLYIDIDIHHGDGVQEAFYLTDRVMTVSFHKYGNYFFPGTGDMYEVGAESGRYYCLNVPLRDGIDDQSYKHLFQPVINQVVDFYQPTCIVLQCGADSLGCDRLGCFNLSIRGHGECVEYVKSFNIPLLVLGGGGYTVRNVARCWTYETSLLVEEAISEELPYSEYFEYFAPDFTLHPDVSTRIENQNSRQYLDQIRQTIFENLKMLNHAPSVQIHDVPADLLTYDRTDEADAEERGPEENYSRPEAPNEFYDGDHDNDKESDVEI

[22] = Toxicity against BALB/c mouse implanted with mouse 4T1 cells assessed as body weight loss at 5 to 15 mg/kg,ip administered 5 times a week for 21 days; assay type: organism-based; details: in vivo, 504 h, dose 5-15 mg/kg, time 21 day
4T1 [23] = test: Antitumor activity against mouse 4T1 cells implanted in BALB/c mouse assessed as increase in apoptosis in tumor tissue at 5 to 15 mg/kg, ip by TUNEL staining based microscopic analysis; assay type: functional, organism-based; details: dose 5-15 mg/kg
Mus musculus [24] = test: Induction of ROS generation in mouse implanted with mouse 4T1 cells at 5 mg/kg, ip administered for 21 days by DCFH-DA staining based microscopic analysis; assay type: functional, organism-based; details: time 21.0 day
4T1 [25] = test: Cell cycle arrest in mouse 4T1 cells assessed as accumulation of cells at G2/M phase at 2.75 uM incubated for 72 hrs by flow cytometry; assay type: functional
[26] = Toxicity in BALB/c mouse implanted with mouse 4T1 cells assessed as effect on cell size in heart at 5 to 15 mg/kg, ip measured after 21 days by H and E staining based assay; assay type: organism-based; details: in vivo, 504 h, dose 5-15 mg/kg, time 21 day
Histone deacetylase 8 = target: T1, Histone deacetylase 8 (Homo sapiens, UniProt Q9BY41); test: Inhibition of human recombinant HDAC8 incubated for 15 mins by fluorescence based microplate analysis
T1 sequence (Q9BY41 whole entry): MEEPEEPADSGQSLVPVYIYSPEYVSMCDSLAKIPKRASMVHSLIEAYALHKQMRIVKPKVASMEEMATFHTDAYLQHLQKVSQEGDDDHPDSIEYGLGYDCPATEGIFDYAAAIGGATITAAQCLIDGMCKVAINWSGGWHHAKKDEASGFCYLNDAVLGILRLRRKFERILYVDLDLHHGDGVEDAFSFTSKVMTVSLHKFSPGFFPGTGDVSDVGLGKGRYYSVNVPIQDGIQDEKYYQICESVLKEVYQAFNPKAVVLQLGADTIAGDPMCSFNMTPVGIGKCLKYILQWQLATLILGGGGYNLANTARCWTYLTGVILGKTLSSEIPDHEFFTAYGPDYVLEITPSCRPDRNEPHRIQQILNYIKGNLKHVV

4T1 [27] = test: Antitumor activity against mouse 4T1 cells implanted in BALB/c mouse assessed as upregulation of cytochrome c level in tumor at 5 to 15 mg/kg, ip by Western blot analysis; assay type: functional, organism-based; details: dose 5-15 mg/kg
Mus musculus [28] = test: Induction of ROS generation in mouse implanted with mouse 4T1 cells at 15 mg/kg, ip administered for 21 days by DCFH-DA staining based microscopic analysis; assay type: functional, organism-based; details: time 21.0 day
[29] = Cmax in Wistar rat at 15 mg/kg, ip measured upto 24 hrs by HPLC analysis; assay type: ADME, organism-based; set-up: dose 15 mg/kg, time < 24 hrs, route ip; details: in vivo
Histone deacetylase 1 = Histone deacetylase 1 (Homo sapiens, UniProt Q13547); test: Inhibition of full length N-terminal human recombinant HDAC1 at 1 uM incubated for 30 mins by fluorescence based microplate assay relative to control
Sequence of Histone deacetylase 1 (Q13547 whole entry): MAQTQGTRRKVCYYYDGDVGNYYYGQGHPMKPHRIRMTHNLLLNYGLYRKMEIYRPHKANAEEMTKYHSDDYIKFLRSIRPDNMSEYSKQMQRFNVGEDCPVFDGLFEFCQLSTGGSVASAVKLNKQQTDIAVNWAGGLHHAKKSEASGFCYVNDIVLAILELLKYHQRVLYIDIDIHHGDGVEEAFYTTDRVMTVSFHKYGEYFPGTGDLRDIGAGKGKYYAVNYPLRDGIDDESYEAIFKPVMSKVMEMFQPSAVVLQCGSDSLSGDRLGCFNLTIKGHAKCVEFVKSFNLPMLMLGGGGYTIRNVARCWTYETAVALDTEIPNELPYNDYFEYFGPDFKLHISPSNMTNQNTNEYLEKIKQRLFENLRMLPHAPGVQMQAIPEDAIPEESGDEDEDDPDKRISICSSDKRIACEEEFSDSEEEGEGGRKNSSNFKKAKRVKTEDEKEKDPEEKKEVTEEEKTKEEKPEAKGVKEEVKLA

4T1 [30] = test: Induction of apoptosis in mouse 4T1 cells assessed as increase in cleaved caspase-3 level by Western blot analysis; assay type: functional, cell-based; details: dose 1.0 µM

## CCCNNC(=O)c1cnc(NCc2ccc(OC)cc2)cn1
[1]
  IC50: 447 nM
[2]
  Activity: Non-Toxic
[3]
  Activity: Non-Toxic
[4]
  selectivity ratio: 385
4T1 [5]
  Activity: Active
4T1 [6]
  Activity: 63.4%
[7]
  half-life: 38.3 min
4T1 [8]
  Activity: Active
[9]
  half-life: 432 min
[10]
  selectivity ratio: 286
4T1 [11]
  inhibition: Active
[12]
  IC50 at 72 h: 212 µM
4T1 [13]
  Activity: Dose-Dependent Effect
4T1 [14]
  inhibition in vivo at 5 mg/kg: 91.2%
[15]
  Activity: Non-Toxic
4T1 [16]
  Activity: 0.65 g
[17]
  Activity: Non-Toxic
4T1 [18]
  inhibition: Dose-Dependent Effect
4T1 [19]
  IC50: 550 nM
[20]
  IC50 at 72 h: 212 µM
[21]
  selectivity ratio: 286
Histone deacetylase 3
  IC50: 14 nM
[22]
  Activity: Non-Toxic
4T1 [23]
  Activity: Active
Mus musculus [24]
  Activity: Active
4T1 [25]
  Activity: 63.4%
[26]
  Activity: Non-Toxic
Histone deacetylase 8
  IC50: 10.7 µM
4T1 [27]
  Activity: Active
Mus musculus [28]
  Activity: Active
[29]
  Cmax: 9580 ng/mL
Histone deacetylase 1
  inhibition: < 17%
4T1 [30]
  Activity: Dose-Dependent Effect
